Here are results for 5 molecules from US20040024048A1, “Medicaments for treating dementia” (priority 2000, published 2004).

For experiment [1], the system named is patients with clinical manifestations of dementing deficits. In words: Alzheimer's disease assessment scale (ADAS / ADAS-Cog) in dementia patients. It counts as in vivo, human. An excerpt: A further test for establishing the neuropsychological status of a dementia patient is the “Alzheimer's Disease Assessment Scale-Cognitive Subscale (ADAS-Cog)” (Rosen et al., 1984). The Alzheimer Disease Assessment Scale was invented by W. G. Rosen, R. C. Mohs, 1988, Rosen and K. L. Davis, 1984, and the German version was produced by R. Ihl and G. Weyer, Beltz Test 1993. The ADAS was not originally intended to be a diagnostic instrument, but separates dementing people from healthy control subjects of the same age very well. The following criteria can be distinguished in the ADAS: cognitive area, noncogn. area, memory, orientation/praxis, motor function, depression, psychotic symptoms, concentration/cooperation, speech. In the version used here, speech is included in the cognitive area, and thus a max. minus score of 70 is possible. It was possible to show for people with Alzheimer-type dementia that the complete scale increases by 5 to 7 points on average over the course of 12 months, and by 14 points on average over the course of 24 months. The items in the cognitive part are most sensitive in this regard.
(§1) Patients with clinical manifestations of dementing deficits and suspected brain damage based on Alzheimer's dementia or vascular dementia or a similar suspected diagnosis were treated with medicines to improve the symptomatic cognitive deficits (nootropics). Since all the active ingredients currently available in the dementia sector provide only marginal improvements, it was justified, despite the disappointing first study, to administer α-lipoic acid in high dose to patients on the basis of this basic therapy. The effect of the therapy was assessed using standardized clinical dementia assessment scales which are usual now and which are distinguished by high reliability. This comprises the mini-mental state examination (MMSE) or the Alzheimer's disease assessment scale (ADAS). The advantage of these clinical instruments is that the severity of the dementia can be established reliably, irrespective of the organic cerebral basis, which is usually not unambiguous, of the clinical picture of dementia.

For experiment [2] the test system is unchanged. In words: mini-mental state examination (MMSE) in dementia patients. The experiment is classed as in vivo, human.
Description: The mini-mental state examination test was published by Marshall Folstein in 1975 and was originally intended as a test to differentiate cognitive functions (Folstein et al., 1975). Because the test is short, it is now used as screening test in studies for establishing inclusion/exclusion criteria. The test covers orientation, attention, short- and medium-term memory, word-finding, reading, writing, and in addition a command to perform an action must be obeyed. The tasks in the test are designed so that they can normally be solved without difficulty by people without cognitive impairment. The maximum score achievable is 30, and a score of less than 24 indicates a dementing disorder. The following levels are generally differentiated (Zec et al., 1992).
as §1

Experiment [3] has as its system aging animals. Conditions: cited from earlier work.
Experiment [4] deals with aged rats. Conditions: high dose, cited from earlier work.
The test system of experiment [5] is patients with sclerotic dementia and involutional depressions. The settings on record: 25-50 mg, patent calls findings unconfirmed and misleading; cited from earlier work.
The test system of experiment [6] is patients with HIV dementia. Conditions: cited from earlier work.
Experiment [7] has as its system patients with clinical manifestations of dementing deficits. Kind of experiment: Global Deterioration Scale (GDS) in dementia patients. It counts as in vivo, human. Conditions: GDS 4/5 at start. An excerpt:
Standardized methods are developed for routine dementia screening, e.g. the mini-mental state examination (MMSE) or the Alzheimer's Disease Assessment Scale (ADAS). Further methods would be: GDS: Global Deterioriation Scale (Reisberg et al., 1982), FAST: Functional Assessment Staging (Reisberg, 1988).

Setting [8] is: Patient 2, Alzheimer's dementia, Aricept 5/10 mg/day for 12 months, before lipoic acid.
[9] abbreviates: Patient 3, Alzheimer's dementia, Aricept 5 mg/day 13 months plus 600 mg vitamin E.
Setting [10] is: Patient 4, Alzheimer's dementia, Aricept 5/10 mg/day 19 months, 300 mg aspirin and 600 mg vitamin E 20 months.
The mark [11] stands for this setting: Patient 1, Alzheimer's dementia, 4 weeks additional 600 mg a-lipoic acid on Aricept.
Where [12] appears, read: Patient 2, additional 600 mg lipoic acid over 7 months on Aricept, Remotiv, vitamin E.
The mark [13] stands for this setting: Patient 3, additional 600 mg lipoic acid on Aricept and vitamin E.
Where [14] appears, read: Patient 4, 600 mg lipoic acid for 8 months on Aricept, aspirin, vitamin E.
The mark [15] stands for this setting: Patient 6, 600 mg lipoic acid on basic therapy.
The mark [16] stands for this setting: Patient 8, 600 mg lipoic acid 4 weeks, Aricept 8 weeks.
Setting [17] is: Patient 11, dementia plus parkinsonism, 600 mg lipoic acid 4 months on Aricept and Madopar T.
[18] abbreviates: patients with HIV dementia, administration of α-lipoic acid.

Where two headings read alike, the source gives them in different places.

Take `COc1cc2c(cc1OC)C(=O)C(CC1CCN(Cc3ccccc3)CC1)C2` (centres unmarked) [Aricept, donepezil]: in experiment [1] (setting [8]), the “ADAS score reached (deterioration)” value is 53. The ADAS score increase in experiment [1] (setting [9]) was 14. In experiment [1] (setting [10]), the “decrease of cognitive ability in the ADAS score” value is listed as 9. For the same molecule, the “deterioration of cognitive status in the MMSE” value in experiment [2] (Patient 1, Alzheimer's dementia, Aricept 5/10 mg/day for 4 months, before lipoic acid) was found to be 1 point. Besides, the “deterioration in the MMSE score” value came to 7 in experiment [2] (setting [8]); 6 in experiment [2] (Patient 5, Alzheimer's dementia, Aricept 5/10 mg/day 24 months with Accuzide 20, Akatinol, 600 mg vitamin E); 5 in experiment [2] (Patient 6, Alzheimer's dementia, Aricept 5/10 mg/day 13 months with aspirin 100, Rökan, 600 mg vitamin E); 6 in experiment [2] (Patient 7, Alzheimer's dementia, Aricept 5 mg/day 6 months plus 600 mg vitamin E). The MMSE score deterioration in experiment [2] (setting [9]) is 2. In addition, the “decrease in the MMSE score” value in experiment [2] (setting [10]) was 5. Besides, the MMSE score reached in experiment [2] (Patient 9, Lewy body dementia, Aricept 5 mg 12 months, Madopar T and Madopar Depot, before lipoic acid) amounted to 17.

Regarding `O=C(O)CCCCC1CCSS1` (stereo not drawn) [R(+)-α-lipoic acid], the “influence on motor functions” value in experiment [3] was “beneficial influence”.

`CCN(C)C(=O)Oc1cccc([C@H](C)N(C)C)c1` [Exelon]: the MMSE score decrease in experiment [2] (Patient 10, frontal cerebral atrophy, Exelon 6 mg/day for 9 months) was 5.

For `O=C(O)CCCCC1CCSS1` (stereo not drawn) [α-lipoic acid, 1,2-dithiolane-3-pentanoic acid], the ADAS score decrease in experiment [1] (setting [11]) is 6; in experiment [1] (Patient 12, frontal cerebral atrophy, 600 mg lipoic acid 4 weeks, Aricept 8 weeks) it was 5. In addition, the ADAS score reached in experiment [1] (Patient 1, Alzheimer's dementia, after 4 weeks additional 600 mg a-lipoic acid on Aricept) is 18; in experiment [1] (setting [16]) it was 35 error points; in experiment [1] (Patient 12, frontal cerebral atrophy, 600 mg lipoic acid 4 weeks, Aricept 8 weeks, from 41 points) it was 36 points. Also, the “improvement in the ADAS score” value in experiment [1] (setting [12]) was 11 points. This molecule yielded an ADAS score recovery in experiment [1] (setting [13]) of 2. In experiment [1] (setting [14]), the “ADAS score went back” value was 3 points. The same molecule gave an ADAS score loss in experiment [1] (setting [15]) of 8. In addition, the ADAS course result in experiment [1] (Patient 7, 600 mg lipoic acid on Aricept and vitamin E) is reported as “remains constant”. Further, the ADAS score decline in experiment [1] (setting [16]) worked out at 3. The ADAS score course entry in experiment [1] (setting [17]) is on record as “remained at the same level”. For the same molecule, the results for the memory performance entry in experiment [4] (aged rats) and in experiment [4] (young animals) were “improvement in memory performance” and “not in young animals”, respectively. Besides, the MMSE score improvement in experiment [2] (setting [11]) was 2; in experiment [2] (setting [13]), 1; in experiment [2] (Patient 5, first 3 months of 600 mg lipoic acid on basic therapy), 1. In addition, the “improvement in the MMSE score” value in experiment [2] (setting [12]) came out at 1 point; in experiment [2] (setting [14]) it was 2; in experiment [2] (Patient 7, after two months of 600 mg lipoic acid on Aricept and vitamin E), 1; in experiment [2] (Patient 9, Lewy body dementia, 600 mg lipoic acid on Aricept and Madopar) it was 3; in experiment [2] (Patient 10, frontal cerebral atrophy, additional 600 mg lipoic acid on Exelon) it was 1. Also, in experiment [2] (setting [15]), the “course of the dementia (MMSE) since lipoic acid” value is given as “no further deterioration”. In experiment [2] (Patient 8, Alzheimer's dementia, 600 mg lipoic acid 4 weeks, Aricept 8 weeks, score 18 at start of lipoic acid), this molecule showed an MMSE score now of 20. Also, the MMSE score course result in experiment [2] (setting [17]) is reported as “remained at the same level”. In addition, the MMSE score reached in experiment [2] (Patient 12, frontal cerebral atrophy, 600 mg lipoic acid 4 weeks, Aricept 8 weeks, other drugs, from 16) was determined as 18. In experiment [5], the manifestations of dementia entry was “improvement of manifestations of dementia”. Further, in experiment [6] (patients with HIV dementia, 600 mg α-lipoic acid monotherapy), the “effect on the cognitive function” value was “no effect whatsoever”. Further, the learning result in experiment [6] (setting [18]) is “deterioration in learning”. For the same molecule, the “verbal learning ability and memory” value in experiment [6] (setting [18]) is “declined significantly”. Also, the “GDS reached (improved)” value in experiment [7] (Patient 3, additional 600 mg lipoic acid) amounted to 4; in experiment [7] (Patient 6, 600 mg lipoic acid), 4. In addition, the “GDS level reached (improved by one level)” value in experiment [7] (Patient 5, 600 mg lipoic acid) is on record as 4.

With `C#CCN(C)[C@H](C)Cc1ccccc1` [deprenyl], the “effects on cognitive performance” value in experiment [6] (demented patients, active control drug in the HIV dementia study) is listed as “confirmed its known beneficial effects”.
